Test: Size-dependent transdermal penetration of PEGylated and anionic liposomes through the stratum corneum of porcine ear tissue (Example 2), DiI fluorescence intensity profiles
Format: in vitro ADME, Yorkshire piglets
Conditions: free dye applied to the skin in liposome-free buffer (control)
Text: For PEGylated liposomes, dimyristoylphosphatidylcholine (DMPC), cholesterol, and dipalmitoylphosphatidylethanolamine-PEG 2000 (PEG2000-PE) (Avanti Polar Lipids Inc., Alabaster, Ala.) were combined in chloroform (Mallinckrodt Baker Inc., Phillipsburg, N.J.) at a molar ratio of 70:25:5. For anionic liposomes, DMPC, cholesterol (both from Avanti), and anionic surfactant dihexadecyl phosphate (DCP) (Sigma Aldrich, St. Louis, Mo.) were mixed in chloroform (Mallinckrodt Baker Inc.) at a molar ratio of 50:40:10. The lipid mixtures were prepared in glass scintillation vials then stored in a vacuum desiccator for at least 24 hours for complete solvent removal. The desiccated lipid mixtures were re-dissolved in anhydrous ethanol (Sigma Aldrich) for a total lipid concentration of 40 mM. To assist in fluorescent imaging, a lipophilic membrane dye, 1,1′-dioctadecyl-3,3,3′,3′-tetramethylindocarbocyanine perchlorate (DiI-C18; DiI) (Life Technologies, Carlsbad, Calif.) was included into the lipid mixtures (1 wt %). […]
The microfluidic-generated liposomes contained lipophilic DiI in their bilayers and hydrophilic SF in their cores to enable fluorescence imaging of tissue penetration depth. […]

SMILES: O=C([O-])c1ccccc1-c1c2ccc(=O)cc-2oc2cc([O-])ccc12.[Na+].[Na+] [free SF dye, sodium fluorescein salt]
- SF dye penetration beyond the SC (in words): no penetration beyond the SC was observed
